# Data taken from US8519163B2, “Anti-tumor activity of AECHL-1, novel triterpenoid isolated from Ailanthus excelsa in vitro and in vivo” (National Centre for Cell Science, priority 2008, dated 2013).
# Tested on: B16F10 cells
# Experiment: Cell cycle analysis by flow cytometry
# Format: cell-based, mouse
# Settings: for Phase of cell cycle (% of cells) G1 / Phase of cell cycle (% of cells) G2/M / Phase of cell cycle (% of cells) S / Phase of cell cycle (% of cells) Sub G0: 24 h
# Procedure: The cell cycle analysis of MCF-7, B16F10 MDA-MB-231 and PC3 cells was done by flow cytometry. […] Cells were harvested with trypsin (0.05%), 0.02% EDTA, 0.05% glucose and a single-cell suspension was prepared. Cells were washed and were pelleted by centrifugation (1000×g for 2 min) and fixed in 70% ethanol while vortexing and stored at 4° C. for 1 hour. Fixed cells were pelleted by centrifugation, to remove ethanol and washed with PBS. Cells were re-suspended in PBS containing 50 μg/ml propidium iodide, 0.1 g/L RNase and 1% BSA, incubated for 30 min at 37° C. in the dark, and analyzed with flow cytometry (FACS Vantage-BD Sciences, USA) equipped with an argon laser at 488 nm. The data was analyzed using Cell Quest software for determining the percent population in different phases of cell cycle.
smiles,measurement,setting,value
C=C1C(OCC)C2(O)OCC34C(=C(C)c5c(C)cc(O)c(OCC)c5C23)OC(=O)C(OC(=O)C(C)(O)CC)C14 (centres unmarked) [AECHL-1],Phase of cell cycle (% of cells) G1,"B16F10, 10 μM",56.55%
same,Phase of cell cycle (% of cells) G2/M,"B16F10, 10 μM",23.02%
same,Phase of cell cycle (% of cells) S,"B16F10, 10 μM",20.46%
same,Phase of cell cycle (% of cells) Sub G0,"B16F10, 10 μM",0.39%
same,Phase of cell cycle (% of cells) G1,"B16F10, 20 μM",57.67%
same,Phase of cell cycle (% of cells) G2/M,"B16F10, 20 μM",23.60%
same,Phase of cell cycle (% of cells) S,"B16F10, 20 μM",18.40%
same,Phase of cell cycle (% of cells) Sub G0,"B16F10, 20 μM",0.65%
same,Phase of cell cycle (% of cells) G1,"B16F10, 40 μM",72.08%
same,Phase of cell cycle (% of cells) G2/M,"B16F10, 40 μM",14.73%
same,Phase of cell cycle (% of cells) S,"B16F10, 40 μM",11.43%
same,Phase of cell cycle (% of cells) Sub G0,"B16F10, 40 μM",2.05%
same,Phase of cell cycle (% of cells) G1,"B16F10, 100 μM",64.04%
same,Phase of cell cycle (% of cells) G2/M,"B16F10, 100 μM",13.23%
same,Phase of cell cycle (% of cells) S,"B16F10, 100 μM",15.41%
same,Phase of cell cycle (% of cells) Sub G0,"B16F10, 100 μM",7.82%
same,phase of cell growth arrest,B16F10 cells,G0/G1 phase arrest
